The test system of data set [1] is A2780. In words: Growth inhibition of human A2780 cells after 72 hrs by CellTiter-96 assay. Type of data set: functional, cell-based. The following applies: A2780, 72 h.
Data set [2] deals with A2780. As to the kind of experiment: Growth inhibition of human A2780 cells at 10 uM after 72 hrs by CellTiter-96 assay relative to control. The data set is classed as functional. The following applies: A2780, 72 h, read-out: GI.
Data set [3] in a line: Toxicity in rat. Type of data set: organism-based. The following applies: in vivo.
A short description of data set [4]: Toxicity in dog. Type of data set: organism-based, Canis lupus familiaris. As to conditions: in vivo.

Each structure is given as a SMILES string.

The values that follow come from ChEMBL document CHEMBL4265946, “Activity of oxygen-versus sulfur-containing analogs of the Flex-Het anticancer agent SHetA2” (Eur J Med Chem, 2018).

For orientation: IC50 means the concentration that gives 50% inhibition. A higher IC50 goes with a need for much substance. In general, NOAEL refers to the highest tested level that showed no adverse finding.

`CCC1(CC)CC(CC)(CC)c2cc(NC(=O)Nc3ccc(C(F)(F)F)cc3)ccc2O1` gave an IC50 in data set [1] of 2 µM. Moreover, in data set [2], the inhibition of growth at 10 µM came out at 86.2%.
Taken in the same sequence, the figures for `CC1(C)CCOc2ccc(NC(=S)Nc3ccc([N+](=O)[O-])cc3)cc21` were 6.4 µM and 19%.
The like results for `CC1(C)CC(C)(C)c2cc(NC(=O)Nc3ccc([N+](=O)[O-])cc3)ccc2O1` were, in that order, 4.1 µM and 79%.
The like results for `CC1(C)CC(C)(C)c2cc(NC(=S)Nc3ccc(C(F)(F)F)cc3)ccc2O1` were, in that order, 43.7 µM and 2%.
In data set [1], `CC1(C)CCOc2ccc(NC(=O)Nc3ccc([N+](=O)[O-])cc3)cc21` gave a 50% inhibitory concentration (IC50) of 6.7 µM. The inhibition of growth at 10 µM in data set [2] came to 74%.
The like results for `CCC1(CC)CC(C)(C)Oc2ccc(NC(=O)Nc3ccc([N+](=O)[O-])cc3)cc21` were, in that order, 2.05 µM and 93.7%.
On to `CC1(C)CC(C)(C)c2cc(NC(=S)Nc3ccc([N+](=O)[O-])cc3)ccc2S1` [SHETA-2], for which the NOAEL in data set [3] was 500 mg/kg/day; in data set [4], more than 1500 mg/kg/day. In data set [1], this molecule had an IC50 of 3.17 µM. Further, in data set [2], the inhibition of growth at 10 µM turned out to be 84.3%.
On to `CCC1(CC)CC(C)(C)c2cc(NC(=O)Nc3ccc(C(F)(F)F)cc3)ccc2O1`, for which the IC50 in data set [1] came to 2.45 µM. The inhibition of growth at 10 µM in data set [2] amounted to 92.4%.
Taken in the same sequence, the figures for `CC1(C)CC(C)(C)c2cc(NC(=O)Nc3ccc(OC(F)(F)F)cc3)ccc2O1` were 4.56 µM and 91.5%.
Taken in the same sequence, the figures for `CC1(C)CC(C)(C)c2cc(NC(=O)Nc3ccc(C#N)cc3)ccc2O1` were 4.7 µM and 93%.
Taken in the same sequence, the figures for `CCC1(CC)CC(C)(C)c2cc(NC(=S)Nc3ccc([N+](=O)[O-])cc3)ccc2O1` were 2.9 µM and 93.9%.
In turn, `CC1(C)CCOc2ccc(NC(=O)Nc3ccc(C(F)(F)F)cc3)cc21` displayed an IC50 in data set [1] of 5 µM. The inhibition of growth at 10 µM in data set [2] came out at 47%.
The like results for `CCC1(CC)CC(CC)(CC)c2cc(NC(=O)Nc3ccc([N+](=O)[O-])cc3)ccc2O1` were, in that order, 2.09 µM and 91.4%.
For the molecule `CC1(C)CCOc2ccc(NC(=O)Nc3ccc(OC(F)(F)F)cc3)cc21`, the IC50 in data set [1] turned out to be 3.5 µM. The inhibition of growth at 10 µM in data set [2] was 36%.
`CC1(C)CC(C)(C)c2cc(N/C(S)=N/c3ccc([N+](=O)[O-])cc3)ccc2O1`: the IC50 in data set [1] worked out at 6.96 µM. For the same molecule, in data set [2], the inhibition of growth at 10 µM came out at 87%.
`CCC1(CC)CC(C)(C)Oc2ccc(NC(=S)Nc3ccc(C(F)(F)F)cc3)cc21`: in data set [1], the IC50 amounted to 4.7 µM. Moreover, the inhibition of growth at 10 µM in data set [2] amounted to 11.8%.
Take `CC1(C)CC(C)(C)c2cc(NC(=S)Nc3ccc(S(N)(=O)=O)cc3)ccc2O1`: 6.9 µM corresponded to half-maximal inhibition in data set [1] (IC50). In addition, the inhibition of growth at 10 µM in data set [2] turned out to be 32%.
Taken in the same sequence, the figures for `CC1(C)CCOc2ccc(NC(=S)Nc3ccc(OC(F)(F)F)cc3)cc21` were 4.3 µM and 16%.
As for `CCC1(CC)CC(C)(C)Oc2ccc(NC(=S)Nc3ccc([N+](=O)[O-])cc3)cc21`, the IC50 in data set [1] is 3.69 µM. The inhibition of growth at 10 µM in data set [2] is 95.7%.
The molecule `CC1(C)CCOc2ccc(NC(=S)Nc3ccc(C(F)(F)F)cc3)cc21` gave an IC50 in data set [1] of 5.5 µM. The inhibition of growth at 10 µM in data set [2] was 28%.
Taken in the same sequence, the figures for `CCC1(CC)CC(C)(C)Oc2ccc(NC(=O)Nc3ccc(C(F)(F)F)cc3)cc21` were 2.43 µM and 93.3%.
The like results for `CCC1(CC)CC(C)(C)c2cc(NC(=O)Nc3ccc([N+](=O)[O-])cc3)ccc2O1` were, in that order, 2.17 µM and 93.2%.
The like results for `CC1(C)CC(C)(C)c2cc(NC(=O)Nc3ccc(C(F)(F)F)cc3)ccc2O1` were, in that order, 3.6 µM and 88.4%.
`CCC1(CC)CC(CC)(CC)c2cc(NC(=O)Nc3ccc(OC(F)(F)F)cc3)ccc2O1` returned an IC50 in data set [1] of 3 µM. The inhibition of growth at 10 µM in data set [2] stood at 67%.
Taken in the same sequence, the figures for `CCOC(=O)c1ccc(N/C(S)=N/c2ccc3c(c2)C(C)(C)CC(C)(C)O3)cc1` were 4.3 µM and 26%.
The like results for `CCC1(CC)CC(CC)(CC)c2cc(NC(=S)Nc3ccc([N+](=O)[O-])cc3)ccc2O1` were, in that order, 4.6 µM and 94%.
